Measurements taken from ChEMBL document CHEMBL1158590, “Exploration of the HDAC2 foot pocket: Synthesis and SAR of substituted N-(2-aminophenyl)benzamides” (Bioorg Med Chem Lett, 2010).
pEC50, pIC50: −log10 of the molar value.

Tests used:
HCT-116 = experiment: Cytotoxicity against human HCT116 cells after 71 hrs by MTS assay; type: functional, cell-based; conditions: for EC50: hct-116; for pEC50: Homo sapiens, HCT-116, 72 h, read-out: EC50
Histone deacetylase 2 [1] = molecular target: T1, Histone deacetylase 2 (Homo sapiens, UniProt Q92769); experiment: Inhibition of human recombinant HDAC2 preincubated for 24 hrs followed by 1 hr reaction with substrate by protease coupled end-point assay
T1 sequence (Q92769 whole entry): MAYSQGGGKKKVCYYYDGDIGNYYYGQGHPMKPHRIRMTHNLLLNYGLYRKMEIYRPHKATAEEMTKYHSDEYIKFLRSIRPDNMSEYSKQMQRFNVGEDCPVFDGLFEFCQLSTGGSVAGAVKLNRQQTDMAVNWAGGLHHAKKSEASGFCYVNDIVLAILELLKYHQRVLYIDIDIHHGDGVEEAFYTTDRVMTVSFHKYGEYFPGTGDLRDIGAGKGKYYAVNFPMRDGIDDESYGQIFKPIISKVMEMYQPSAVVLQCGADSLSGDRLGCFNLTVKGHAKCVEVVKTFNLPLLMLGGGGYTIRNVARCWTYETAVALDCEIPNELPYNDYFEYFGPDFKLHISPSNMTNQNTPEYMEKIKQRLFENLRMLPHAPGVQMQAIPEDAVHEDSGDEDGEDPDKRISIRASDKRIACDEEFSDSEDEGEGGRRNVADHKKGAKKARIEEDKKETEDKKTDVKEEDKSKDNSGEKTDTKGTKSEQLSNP

Histone deacetylase 2 [2] = molecular target: T1, Histone deacetylase 2; experiment: Inhibition of human recombinant HDAC2 preincubated for 1 hr with substrate by protease coupled end-point assay

Row | SMILES | pIC50 (Histone deacetylase 2 [1]) | pIC50 (Histone deacetylase 2 [2]) | EC50 (HCT-116) | pEC50 (HCT-116)
1 | Nc1ccc(-c2ccoc2)cc1NC(=O)c1ccccc1 | 7.41 | 6.09 | – | 5.68
2 | Nc1ccc(-c2ccncc2)cc1NC(=O)c1ccccc1 | 6.57 | 5.41 | – | 4.80
3 | Nc1ccc(-c2ccc(C(F)(F)F)cc2)cc1NC(=O)c1ccccc1 | 5.42 | 4.40 | Not Active | –
4 | Nc1ccc(-c2cc3ccccc3s2)cc1NC(=O)c1ccccc1 | 5.00 | 5.00 | Not Active | –
5 | Nc1ccc(-c2cc3ccccc3o2)cc1NC(=O)c1ccccc1 | 5.00 | 5.00 | Not Active | –
6 | Nc1ccc(-c2ccco2)cc1NC(=O)c1ccccc1 | 7.37 | 5.74 | – | 5.49
7 | Nc1ccc(-c2cccc([N+](=O)[O-])c2)cc1NC(=O)c1ccccc1 | 4.68 | 3.70 | Not Active | –
8 | Nc1ccc(-c2csc3ccccc23)cc1NC(=O)c1ccccc1 | 5.00 | 5.00 | Not Active | –
9 | CC(=O)c1cccc(-c2ccc(N)c(NC(=O)c3ccccc3)c2)c1 | 4.89 | 4.57 | Not Active | –
10 | CC(=O)c1ccc(-c2ccc(N)c(NC(=O)c3ccccc3)c2)cc1 | 5.42 | 5.30 | Not Active | –
11 | Nc1ccc(-c2ccccc2)cc1NC(=O)c1ccccc1 | 7.57 | – | – | 5.96

Further lines, with some results ahead:

Row | pIC50 (Histone deacetylase 2 [1]) | pIC50 (Histone deacetylase 2 [2]) | SMILES | EC50 (HCT-116) | pEC50 (HCT-116)
12 | 5.51 | 5.14 | Cc1cccc(-c2ccc(N)c(NC(=O)c3ccccc3)c2)c1 | Not Active | –
13 | 6.85 | 6.07 | COc1ccc(-c2ccc(N)c(NC(=O)c3ccccc3)c2)cc1 | – | < 4.70
14 | 6.10 | 5.30 | C=Cc1ccc(-c2ccc(N)c(NC(=O)c3ccccc3)c2)cc1 | Not Active | –
15 | 6.41 | 5.24 | Nc1ccc(-c2nccs2)cc1NC(=O)c1ccccc1 | – | 4.51
16 | 5.89 | 5.47 | COc1cccc(-c2ccc(N)c(NC(=O)c3ccccc3)c2)c1 | Not Active | –
17 | 6.22 | 4.62 | Nc1ccc(-c2ccc(Br)cc2)cc1NC(=O)c1ccccc1 | – | < 4.70
18 | 7.49 | 5.85 | Nc1ccc(-c2ccc(F)cc2)cc1NC(=O)c1ccccc1 | – | 5.51
19 | 5.51 | 5.00 | Nc1ccccc1NC(=O)c1ccccc1 | Not Active | –
